# System: tumor associated fibroblasts
# Test: Trypan blue staining, tumor associated fibroblasts
# Format: cell-based
# Conditions: increasing doses, 24 hours
# Description: Cell Viability Assay—The Cells were treated with peptides for 24 hours at different peptide concentrations. The 3-(4,5-dimethylthiazol-2-yl)-5-(3-carboxymethoxyphenyl)-2-(4-sulfophenyl)-2H-tetrazolium compound from Promega Viability kit (Madison, Ill.) was added, and the cells were incubated at 37° C. for 1-2 hours. The optical density on 96-plate was analyzed with a microplate reader at 490 nm to determine cell viability. In addition, cells were stained with trypan blue after 24 hours of treatment with Y15 and the percent of cells that stained positive were determined with a hemacytometer. […] Then 2% SDS was added to the dried plated and OD at 590 nm was measured for detecting cell adhesion. […] Protein concentrations were determined using a Bio-Rad Kit. The boiled samples were loaded on Ready SDS-10% PAGE gels (Bio Rad, Inc) and used for Western blot analysis with the protein-specific antibody. […] Detachment Assay—Cells were plated with and without inhibitors for 24 hours, and detached and attached cells were counted in a hemocytometer. We calculated the percent of detachment by dividing the number of detached cells by the total number of cells. The percent of detached cells was calculated in three independent experiments. […] For each experiment 300 cells per treatment were counted. […]
structure (smiles),measurement,value
"Cl.Cl.Cl.Cl.Nc1cc(N)c(N)cc1N [Y15, 1,2,4,5-benzenetetraamine tetrahydrochloride]",cell viability (trypan blue),no significant decrease in viability

# Reference: patent US8314150B2, “Kinase protein binding inhibitors” (priority 2008, dated 2012)
